Experimental data reported in ChEMBL document CHEMBL2440114, “Methanolysis of triterpenoid saponin from Ardisia gigantifolia stapf. and structure-activity relationship study against cancer cells” (Bioorg Med Chem Lett, 2013).
pIC50: −log10 of the molar value.

Legend:
HCT-8 = experiment: Antiproliferative activity against human HCT8 cells by MTT assay; format: functional, cell-based
Bel-7402 [1] = experiment: Antiproliferative activity against human Bel7402 cells by MTT assay; format: functional, cell-based
A549 = experiment: Antiproliferative activity against human A549 cells by MTT assay; format: functional, cell-based
Bel-7402 [2] = experiment: Cell cycle arrest in human Bel7402 cells assessed as accumulation in G2/M phase (reference value: 43.75+/- 1.1 %); format: functional
Bel-7402 [3] = experiment: Cell cycle arrest in human Bel7402 cells assessed as accumulation in S phase (reference value: 18.65+/- 0.5 %); format: functional
Bel-7402 [4] = experiment: Antiproliferative activity against human Bel7402 cells after 12 to 72 hrs by MTT assay; format: functional, cell-based
Bel-7402 [5] = experiment: Cell cycle arrest in human Bel7402 cells assessed as accumulation in G1 phase (reference value: 37.6+/- 1.4 %); format: functional
Bel-7402 [6] = experiment: Antiproliferative activity against human Bel7402 cells at 0.5 to 20 uM by MTT assay; format: functional, cell-based; details: TDE = time-dependent effect
[7] = Cytotoxicity against human […] cells; format: functional, cell-based
HepG2 = experiment: Cytotoxicity against human HepG2 cells; format: functional, cell-based
HeLa = experiment: Cytotoxicity against human HeLa cells; format: functional, cell-based
EJ = experiment: Cytotoxicity against human EJ cells; format: functional, cell-based

| Compound | pIC50 (HCT-8) | pIC50 (Bel-7402 [1]) | pIC50 (A549) | other results |
| --- | --- | --- | --- | --- |
| O=c1[nH]cc(F)c(=O)[nH]1 [FLUOROURACIL] | 5.16 | 5.08 | – | – |
| CCCCO[C@H]1OC[C@]23CC[C@@]1(C)C[C@H]2C1=CC[C@@H]2[C@@]4(C)CC[C@H](O[C@@H]5OC[C@H](O[C@@H]6O[C@H](CO)[C@@H](O)[C@H](O)[C@H]6O)[C@H](O)[C@H]5O[C@@H]5O[C@H](CO)[C@@H](O)[C@H](O)[C@H]5O)C(C)(C)[C@@H]4CC[C@@]2(C)[C@]1(C)C[C@H]3O | < 4.00 | < 4.00 | < 4.00 | – |
| CC(=O)OC[C@@]1(C)CC[C@]23CO[C@@]4(CC[C@@H]5[C@@]6(C)CC[C@H](O[C@@H]7OC[C@H](O[C@@H]8O[C@H](CO)[C@@H](O)[C@H](O[C@@H]9O[C@@H](C)[C@H](O)[C@@H](O)[C@H]9O)[C@H]8O[C@@H]8OC[C@@H](O)[C@H](O[C@@H]9O[C@H](CO)[C@@H](O)[C@H](O)[C@H]9O)[C@H]8O)[C@H](O)[C@H]7O[C@@H]7O[C@H](CO)[C@@H](O)[C@H](O)[C@H]7O)C(C)(C)[C@@H]6CC[C@@]5(C)[C@]4(C)C[C@H]2O)[C@@H]3C1 | 5.24 | 5.57 | 5.20 | – |
| C[C@@H]1O[C@@H](O[C@H]2[C@H](O)[C@@H](CO)O[C@@H](O[C@H]3CO[C@@H](O[C@H]4CC[C@]5(C)[C@H]6CC[C@]78OC[C@@]9(CC[C@](C)(C=O)C[C@H]97)[C@H](O)C[C@@]8(C)[C@]6(C)CC[C@H]5C4(C)C)[C@H](O[C@@H]4O[C@H](CO)[C@@H](O)[C@H](O)[C@H]4O)[C@H]3O)[C@@H]2O[C@@H]2OC[C@@H](O)[C@H](O[C@@H]3O[C@H](CO)[C@@H](O)[C@H](O)[C@H]3O)[C@H]2O)[C@H](O)[C@H](O)[C@H]1O | 5.70 | 5.49 | 5.49 | – |
| C[C@@H]1O[C@@H](O[C@H]2[C@H](O)[C@@H](CO)O[C@@H](O[C@H]3CO[C@@H](O[C@H]4CC[C@]5(C)[C@H]6CC[C@]78OC[C@@]9(CC[C@](C)(C=O)C[C@H]97)C(=O)C[C@@]8(C)[C@]6(C)CC[C@H]5C4(C)C)[C@H](O)[C@H]3O)[C@@H]2O[C@@H]2OC[C@@H](O)[C@H](O)[C@H]2O)[C@H](O)[C@H](O)[C@H]1O | 5.11 | 5.16 | 5.00 | – |
| CC1(C)CC[C@]23CO[C@@]4(CC[C@@H]5[C@@]6(C)CC[C@H](O[C@@H]7OC[C@H](O[C@@H]8O[C@H](CO)[C@@H](O)[C@H](O)[C@H]8O[C@@H]8OC[C@@H](O)[C@H](O)[C@H]8O)[C@H](O)[C@H]7O[C@@H]7O[C@H](CO)[C@@H](O)[C@H](O)[C@H]7O)C(C)(C)[C@@H]6CC[C@@]5(C)[C@]4(C)C[C@H]2O)[C@@H]3C1 [LYSIKOKIANOSIDE 1] | 5.00 | 5.17 | 5.36 | – |
| C[C@@H]1O[C@@H](O[C@H]2[C@H](O)[C@@H](CO)O[C@@H](O[C@H]3CO[C@@H](O[C@H]4CC[C@]5(C)[C@H]6CC[C@]78OC[C@@]9(CCC(C)(C)C[C@H]97)[C@H](O)C[C@@]8(C)[C@]6(C)CC[C@H]5C4(C)C)[C@H](O[C@@H]4O[C@H](CO)[C@@H](O)[C@H](O)[C@H]4O)[C@H]3O)[C@@H]2O[C@@H]2OC[C@@H](O)[C@H](O)[C@H]2O)[C@H](O)[C@H](O)[C@H]1O | < 4.00 | 6.07 | 4.29 | Activity (Bel-7402 [2]): 48.08%; Activity (Bel-7402 [3]): 18.61%; Activity (Bel-7402 [4]): Dose-dependent effect; Activity (Bel-7402 [5]): 33.31%; Activity (Bel-7402 [6]): tde |
| CCCCO[C@H]1OC[C@]23CC[C@@]1(C)C[C@H]2C1=CC[C@@H]2[C@@]4(C)CC[C@H](O)C(C)(C)[C@@H]4CC[C@@]2(C)[C@]1(C)C[C@H]3O | < 4.00 | 4.28 | 4.35 | – |
| CCCCO[C@@H]1OC[C@]23CC[C@@]1(C)C[C@H]2C1=CC[C@@H]2[C@@]4(C)CC[C@H](O[C@@H]5OC[C@H](O[C@@H]6O[C@H](CO)[C@@H](O)[C@H](O)[C@H]6O)[C@H](O)[C@H]5O[C@@H]5O[C@H](CO)[C@@H](O)[C@H](O)[C@H]5O)C(C)(C)[C@@H]4CC[C@@]2(C)[C@]1(C)C[C@H]3O | < 4.00 | 5.13 | 4.98 | – |
| CC1(C)[C@@H](O[C@@H]2OC[C@H](O[C@@H]3O[C@H](CO)[C@@H](O)[C@H](O)[C@H]3O[C@@H]3OC[C@@H](O)[C@H](O)[C@H]3O)[C@H](O)[C@H]2O)CC[C@]2(C)[C@H]3CC[C@]45OC[C@@]6(CC[C@](C)(C=O)C[C@H]64)[C@H](O)C[C@@]5(C)[C@]3(C)CC[C@@H]12 [PRIMULANIN] | 5.07 | 4.99 | 4.92 | – |
| CCCCO[C@@H]1OC[C@]23CC[C@@]1(C)C[C@H]2C1=CC[C@@H]2[C@@]4(C)CC[C@H](O)C(C)(C)[C@@H]4CC[C@@]2(C)[C@]1(C)C[C@H]3O | < 4.00 | 4.94 | < 4.00 | – |
| CC(=O)OC[C@@]1(C)CC[C@]23CO[C@@]4(CC[C@@H]5[C@@]6(C)CC[C@H](O[C@@H]7OC[C@H](O[C@@H]8O[C@H](CO)[C@@H](O)[C@H](O[C@@H]9O[C@@H](C)[C@H](O)[C@@H](O)[C@H]9O)[C@H]8O[C@@H]8OC[C@@H](O)[C@H](O)[C@H]8O)[C@H](O)[C@H]7O[C@@H]7O[C@H](CO)[C@@H](O)[C@H](O)[C@H]7O)C(C)(C)[C@@H]6CC[C@@]5(C)[C@]4(C)C[C@H]2O)[C@@H]3C1 | < 4.00 | < 4.00 | 4.22 | – |
| CC(=O)OC[C@H]1O[C@@H](O[C@H]2[C@H](O[C@H]3CC[C@]4(C)[C@H]5CC[C@]67OC[C@@]8(CC[C@](C)(C=O)C[C@H]86)[C@H](O)C[C@@]7(C)[C@]5(C)CC[C@H]4C3(C)C)OC[C@H](O[C@@H]3O[C@H](CO)[C@@H](O)[C@H](O[C@@H]4O[C@@H](C)[C@H](O)[C@@H](O)[C@H]4O)[C@H]3O[C@@H]3OC[C@@H](O)[C@H](O)[C@H]3O)[C@@H]2O)[C@H](O)[C@@H](O)[C@@H]1O | 5.39 | 5.11 | 5.12 | – |
| CC(=O)OC[C@H]1O[C@@H](O[C@H]2[C@H](O[C@H]3CC[C@]4(C)[C@H]5CC[C@]67OC[C@@]8(CCC(C)(C)C[C@H]86)[C@H](O)C[C@@]7(C)[C@]5(C)CC[C@H]4C3(C)C)OC[C@H](O[C@@H]3O[C@H](CO)[C@@H](O)[C@H](O[C@@H]4O[C@@H](C)[C@H](O)[C@@H](O)[C@H]4O)[C@H]3O[C@@H]3OC[C@@H](O)[C@H](O)[C@H]3O)[C@@H]2O)[C@H](O)[C@@H](O)[C@@H]1O | 5.03 | 5.08 | 5.09 | – |
| C[C@@H]1O[C@@H](O[C@H]2[C@H](O)[C@@H](CO)O[C@@H](O[C@H]3CO[C@@H](O[C@H]4CC[C@]5(C)[C@H]6CC[C@]78OC[C@@]9(CCC(C)(C)C[C@H]97)[C@H](O)C[C@@]8(C)[C@]6(C)CC[C@H]5C4(C)C)[C@H](O[C@@H]4O[C@H](CO)[C@@H](O)[C@H](O)[C@H]4O)[C@H]3O)[C@@H]2O[C@@H]2OC[C@@H](O)[C@H](O[C@@H]3O[C@H](CO)[C@@H](O)[C@H](O)[C@H]3O)[C@H]2O)[C@H](O)[C@H](O)[C@H]1O | 5.00 | 5.11 | 5.09 | Activity (Bel-7402 [2]): 59.94%; Activity (Bel-7402 [4]): Dose-dependent effect; Activity (Bel-7402 [5]): 40.86%; Activity (Bel-7402 [6]): tde |
| C[C@@H]1O[C@@H](O[C@H]2[C@H](O)[C@@H](CO)O[C@@H](O[C@H]3CO[C@@H](O[C@H]4CC[C@]5(C)[C@H]6CC[C@]78OC[C@@]9(CC[C@](C)(C=O)C[C@H]97)[C@H](O)C[C@@]8(C)[C@]6(C)CC[C@H]5C4(C)C)[C@H](O[C@@H]4O[C@H](CO)[C@@H](O)[C@H](O)[C@H]4O)[C@H]3O)[C@@H]2O[C@@H]2OC[C@@H](O)[C@H](O)[C@H]2O)[C@H](O)[C@H](O)[C@H]1O | < 4.00 | 5.80 | < 4.00 | pIC50 [7]: 5.68; pIC50 (HepG2): 5.72; pIC50 (HeLa): 5.74; pIC50 (EJ): 5.70 |
| C[C@@H]1O[C@@H](O[C@H]2[C@H](O)[C@@H](CO)O[C@@H](O[C@H]3CO[C@@H](O[C@H]4CC[C@]5(C)[C@H]6CC[C@]78OC[C@@]9(CC[C@](C)(CO)C[C@H]97)C(=O)C[C@@]8(C)[C@]6(C)CC[C@H]5C4(C)C)[C@H](O[C@@H]4O[C@H](CO)[C@@H](O)[C@H](O)[C@H]4O)[C@H]3O)[C@@H]2O[C@@H]2OC[C@@H](O)[C@H](O)[C@H]2O)[C@H](O)[C@H](O)[C@H]1O | 5.47 | 5.44 | 5.42 | – |
| C[C@@H]1O[C@@H](O[C@H]2[C@H](O)[C@@H](CO)O[C@@H](O[C@H]3CO[C@@H](O[C@H]4CC[C@]5(C)[C@H]6CC[C@]78OC[C@@]9(CC[C@](C)(CO)C[C@H]97)[C@H](O)C[C@@]8(C)[C@]6(C)CC[C@H]5C4(C)C)[C@H](O[C@@H]4O[C@H](CO)[C@@H](O)[C@H](O)[C@H]4O)[C@H]3O)[C@@H]2O[C@@H]2OC[C@@H](O)[C@H](O)[C@H]2O)[C@H](O)[C@H](O)[C@H]1O | 5.06 | < 4.00 | 4.51 | – |
